Measurements taken from PubChem BioAssay (NCI).
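Values below derive from 48-hour exposures of cells grown in 96-well plates, with endpoints linearly interpolated between the two concentrations bracketing the appropriate inhibition level. TGI is the concentration that stops growth completely.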

Tests used:
Assay in all cases: NCI tumour cell line growth inhibition, 48 h
[1] = tested on: HCT-116 colon
[2] = tested on: MDA-N
[3] = tested on: SW-620 colon
[4] = tested on: SN12C renal
[5] = tested on: OVCAR-8 ovarian
[6] = tested on: CCRF-CEM leukemia
[7] = tested on: ACHN renal
[8] = tested on: 786-0 renal
[9] = tested on: SNB-75 CNS
[10] = tested on: IGROV1 ovarian
[11] = tested on: A549 NSCLC
[12] = tested on: HS 578T breast
[13] = tested on: HOP-62 NSCLC
[14] = tested on: NCI-H226 lung
[15] = tested on: U251 CNS
[16] = tested on: PC-3 prostate
[17] = tested on: UO-31 renal
[18] = tested on: M14 melanoma
[19] = tested on: MCF7 breast
[20] = tested on: LOX IMVI melanoma
[21] = tested on: HCT-15 colon
[22] = tested on: TK-10 renal
[23] = tested on: UACC-62 melanoma
[24] = tested on: SF-295 CNS
[25] = tested on: SK-OV-3 ovarian
[26] = tested on: UACC-257 melanoma
[27] = tested on: NCI-H460 lung
[28] = tested on: MALME-3M melanoma
[29] = tested on: SK-MEL-28 melanoma
[30] = tested on: OVCAR-5 ovarian
[31] = tested on: A498 renal
[32] = tested on: SK-MEL-2 melanoma
[33] = tested on: SK-MEL-5 melanoma
[34] = tested on: HOP-92 NSCLC
[35] = tested on: NCI/ADR-RES ovarian
[36] = tested on: RXF 393 renal
[37] = tested on: OVCAR-3 ovarian
[38] = tested on: MDA-MB-435
[39] = tested on: SNB-19 CNS
[40] = tested on: BT-549 breast
[41] = tested on: MOLT-4 leukemia
[42] = tested on: HCC-2998 colon
[43] = tested on: EKVX NSCLC
[44] = tested on: SR leukemia
[45] = tested on: HL-60(TB) leukemia
[46] = tested on: MDA-MB-231 breast
[47] = tested on: CAKI-1 renal
[48] = tested on: HT29 colon
[49] = tested on: NCI-H23 lung
[50] = tested on: OVCAR-4 ovarian
[51] = tested on: KM12 colon
[52] = tested on: SF-539 CNS
[53] = tested on: COLO 205 colon
[54] = tested on: K-562 leukemia
[55] = tested on: T-47D breast
[56] = tested on: SF-268 CNS
[57] = tested on: DU-145 prostate
[58] = tested on: RPMI-8226 leukemia
[59] = tested on: NCI-H522 lung

With `O=C(N=Nc1c(O)[nH]c2c(Cl)cc(Cl)cc12)C(=O)Nc1cccc(C(F)(F)F)c1` the TGI [1] was greater than 100 µM, the TGI [2] was greater than 100 µM and the TGI [3] was greater than 100 µM. It also gave a TGI [4] greater than 100 µM, a TGI [5] greater than 100 µM and a TGI [6] greater than 100 µM. The TGI [7] was greater than 100 µM, the TGI [8] was greater than 100 µM and the TGI [9] was greater than 100 µM. It also gave a TGI [10] greater than 100 µM, a TGI [11] greater than 100 µM and a TGI [12] greater than 100 µM. It also gave a TGI [13] greater than 100 µM, a TGI [14] greater than 100 µM and a TGI [15] greater than 100 µM. The TGI [16] was greater than 100 µM, the TGI [17] was greater than 100 µM and the TGI [18] was greater than 100 µM. For the same compound, the TGI [19] was greater than 100 µM, the TGI [20] was greater than 100 µM and the TGI [21] was greater than 100 µM. For the same compound, the TGI [22] was greater than 100 µM, the TGI [23] was greater than 100 µM and the TGI [24] was greater than 100 µM. The TGI [25] was greater than 100 µM, the TGI [26] was greater than 100 µM and the TGI [27] was greater than 100 µM. The TGI [28] was greater than 100 µM, the TGI [29] was greater than 100 µM and the TGI [30] was greater than 100 µM. The TGI [31] was greater than 100 µM, the TGI [32] was greater than 100 µM and the TGI [33] was greater than 100 µM. The TGI [34] was greater than 100 µM, the TGI [35] was greater than 100 µM and the TGI [36] was greater than 100 µM. It also gave a TGI [37] greater than 100 µM, a TGI [38] greater than 100 µM and a TGI [39] greater than 100 µM. For the same compound, the TGI [40] was greater than 100 µM, the TGI [41] was greater than 100 µM and the TGI [42] was greater than 100 µM. For the same compound, the TGI [43] was greater than 100 µM, the TGI [44] was greater than 100 µM and the TGI [45] was greater than 100 µM. For the same compound, the TGI [46] was greater than 100 µM, the TGI [47] was greater than 100 µM and the TGI [48] was greater than 100 µM. For the same compound, the TGI [49] was greater than 100 µM, the TGI [50] was greater than 100 µM and the TGI [51] was greater than 100 µM. For the same compound, the TGI [52] was greater than 100 µM and the TGI [53] was greater than 100 µM.

With `O=[N+]([O-])c1ccc(-c2ccc([C@H]3CC(c4cc(F)c(Cl)cc4Cl)=NN3)o2)cc1` the TGI [1] was greater than 100 µM, the TGI [2] was greater than 100 µM and the TGI [3] was greater than 100 µM. It also gave a TGI [54] greater than 100 µM, a TGI [4] greater than 100 µM and a TGI [5] greater than 100 µM. The TGI [6] was 35.1 µM, the TGI [7] was greater than 100 µM and the TGI [8] was greater than 100 µM. It also gave a TGI [9] of 71.4 µM, a TGI [55] of 61.8 µM and a TGI [10] greater than 100 µM. For the same compound, the TGI [12] was greater than 100 µM, the TGI [13] was greater than 100 µM and the TGI [14] was 58.9 µM. The TGI [17] was greater than 100 µM, the TGI [18] was greater than 100 µM and the TGI [19] was greater than 100 µM. The TGI [20] was greater than 100 µM, the TGI [21] was greater than 100 µM and the TGI [22] was greater than 100 µM. For the same compound, the TGI [23] was greater than 100 µM, the TGI [24] was greater than 100 µM and the TGI [25] was greater than 100 µM. The TGI [26] was greater than 100 µM, the TGI [27] was greater than 100 µM and the TGI [28] was greater than 100 µM. For the same compound, the TGI [56] was greater than 100 µM, the TGI [30] was greater than 100 µM and the TGI [31] was greater than 100 µM. The TGI [33] was 32.2 µM, the TGI [34] was greater than 100 µM and the TGI [35] was 90.2 µM. The TGI [36] was greater than 100 µM, the TGI [37] was greater than 100 µM and the TGI [57] was greater than 100 µM. It also gave a TGI [38] greater than 100 µM, a TGI [39] greater than 100 µM and a TGI [40] of 90.9 µM. For the same compound, the TGI [41] was 41 µM, the TGI [42] was 38.7 µM and the TGI [43] was greater than 100 µM. The TGI [44] was 77.1 µM, the TGI [45] was 16.2 µM and the TGI [58] was greater than 100 µM. It also gave a TGI [47] greater than 100 µM, a TGI [48] greater than 100 µM and a TGI [49] of 32.9 µM. For the same compound, the TGI [50] was greater than 100 µM, the TGI [51] was greater than 100 µM and the TGI [52] was 30.1 µM. The TGI [59] was greater than 100 µM.

With `CC(=O)Nc1ccc2c3c(cc(O)c2c1)N(C(=O)CCCCCCC(=O)Nc1ccc2c4c(cc(O)c2c1)N(C(=O)OC(C)(C)C)CC4CCl)CC3CCl` (stereo not drawn) the TGI [1] was 11.9 µM, the TGI [2] was 0.332 µM and the TGI [3] was greater than 36.3 µM. The TGI [54] was greater than 100 µM, the TGI [4] was 2.59 µM and the TGI [5] was greater than 32.9 µM. For the same compound, the TGI [6] was 0.0259 µM, the TGI [7] was 0.465 µM and the TGI [8] was 5.55 µM. For the same compound, the TGI [9] was 0.284 µM, the TGI [55] was 2.3 µM and the TGI [10] was greater than 33.8 µM. It also gave a TGI [11] greater than 32.3 µM, a TGI [13] of 3.45 µM and a TGI [14] of 0.463 µM. It also gave a TGI [15] of 11 µM, a TGI [17] of 3.35 µM and a TGI [18] of 0.374 µM. The TGI [19] was 0.739 µM, the TGI [20] was greater than 33.4 µM and the TGI [21] was greater than 38.5 µM. For the same compound, the TGI [23] was 0.219 µM, the TGI [24] was 0.957 µM and the TGI [25] was 23.9 µM. It also gave a TGI [26] of 0.439 µM, a TGI [27] of 0.245 µM and a TGI [56] of 1.67 µM. For the same compound, the TGI [30] was 0.663 µM, the TGI [31] was 0.0819 µM and the TGI [32] was 0.0593 µM. For the same compound, the TGI [33] was 0.0783 µM, the TGI [34] was 4.11 µM and the TGI [35] was greater than 72 µM. It also gave a TGI [36] of 0.0392 µM, a TGI [37] of 0.263 µM and a TGI [57] of 0.0587 µM. The TGI [38] was 0.305 µM, the TGI [40] was 0.979 µM and the TGI [41] was greater than 100 µM. For the same compound, the TGI [42] was 0.238 µM, the TGI [43] was 1.08 µM and the TGI [44] was 0.0243 µM. For the same compound, the TGI [45] was 0.241 µM, the TGI [47] was 17.2 µM and the TGI [49] was 0.346 µM. For the same compound, the TGI [50] was 3.98 µM, the TGI [51] was 0.804 µM and the TGI [52] was 0.396 µM. The TGI [53] was 0.284 µM and the TGI [59] was 0.405 µM.

Compound `CSc1ccc(/C=C2\N=C(c3ccccc3)N(NC(=O)c3c(Cl)c(Cl)c(Cl)c(Cl)c3-c3nc4ccccc4[nH]3)C2=O)cc1` has a TGI [1] of 83.3 µM, a TGI [2] greater than 100 µM and a TGI [3] greater than 100 µM. For the same compound, the TGI [54] was 66.4 µM, the TGI [4] was greater than 100 µM and the TGI [5] was greater than 100 µM. For the same compound, the TGI [6] was greater than 100 µM, the TGI [7] was greater than 100 µM and the TGI [8] was greater than 100 µM. It also gave a TGI [9] of 46.6 µM, a TGI [55] of 25.6 µM and a TGI [10] greater than 100 µM. The TGI [11] was greater than 100 µM, the TGI [12] was greater than 100 µM and the TGI [13] was greater than 100 µM. The TGI [14] was greater than 100 µM, the TGI [16] was greater than 100 µM and the TGI [17] was greater than 100 µM. It also gave a TGI [18] greater than 100 µM, a TGI [19] greater than 100 µM and a TGI [20] greater than 100 µM. The TGI [21] was greater than 100 µM, the TGI [23] was 59 µM and the TGI [24] was greater than 100 µM. It also gave a TGI [25] greater than 100 µM, a TGI [26] greater than 100 µM and a TGI [27] of 28 µM. The TGI [28] was greater than 100 µM, the TGI [29] was greater than 100 µM and the TGI [56] was greater than 100 µM. It also gave a TGI [30] greater than 100 µM, a TGI [31] of 80.3 µM and a TGI [32] greater than 100 µM. For the same compound, the TGI [33] was greater than 100 µM, the TGI [34] was 52.2 µM and the TGI [35] was greater than 100 µM. It also gave a TGI [37] greater than 100 µM, a TGI [57] greater than 100 µM and a TGI [38] of 19.7 µM. For the same compound, the TGI [39] was greater than 100 µM, the TGI [40] was greater than 100 µM and the TGI [41] was 77.3 µM. The TGI [42] was 39.3 µM, the TGI [43] was greater than 100 µM and the TGI [44] was greater than 100 µM. It also gave a TGI [45] of 61 µM, a TGI [47] of 85.3 µM and a TGI [48] greater than 100 µM. It also gave a TGI [49] of 83 µM, a TGI [51] of 65.6 µM and a TGI [52] greater than 100 µM. For the same compound, the TGI [53] was 95.9 µM and the TGI [59] was greater than 100 µM.
